Common to all, as to format: cell-based
The target of assay [1] is T1, IKZF1 (Homo sapiens, UniProt Q13422+Q96SW2).
T1 construct: expressed in transfected cells
The assay is described as follows: HEK293 HiBiT in vitro degradation of IKZF1. The conditions noted are these: for Dmax: HEK293, HEK293 HiBiT, maximum degradation at the highest concentration tested; for DC50: HEK293 HiBiT, 18-24 hr incubation, normalized to DMSO control, read-out: IKZF1 EC50. The essentials: (§1)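 Degradation was scored as loss of HiBiT signal from C-terminally tagged IKZF1, IKZF2 or SALL4 in doxycycline-induced Flp-In T-REx HEK293 cells after overnight (18-24 h) compound treatment. EC50 and Dmax were derived from the luminescence.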
(HiBiT is a short tag that completes a luciferase, so light tracks the accessible tagged protein.)

Assay [2] deals with T2, IKZF2 (Homo sapiens, UniProt Q96SW2+Q9UKS7). The experiment in a line: Human whole blood IKZF2 degradation (flow cytometry, CD4/CD25/Foxp3+ Treg cells). The settings on record: 24 hrs incubation, IKZF2 MFI in CD4/CD25/Foxp3+ Treg cells, flow cytometry; for DC50: read-out: IKZF2 EC50. Further details: endogenous in cells. As to the method: In vitro IKZF2 potency was assessed in human whole blood using a fluorescence activated cell sorting assay. 50 μL of freshly collected blood from healthy human volunteers was incubated with Immunocult CD3/CD28 activator (Stemcell Technologies) and solution of testing compounds (serially-diluted) for 24 hrs hours at 37° C. in 384 well plates. The treated red blood cells were removed by adding lysis buffer (BD cat #558049) then the cells were fixed, permeabilized, and stained with anti-CD4 (BD cat #564419), anti-Foxp3 (Invitrogen cat #48-4777-42), anti-IKZF1 (Cell Signaling Tech. cat #33462S), and anti-IKZF2(Cell Signaling Tech. cat #65432S) antibodies. The median fluorescent intensity (MFI) of IKZF2 signal from CD4/CD25/Foxp3+ Treg cells and MFI of IKZF1 signal from CD4+ T cells were quantified in the same samples by flow cytometry using an Attune instrument. EC50 and Dmax of each compound was determined by plotting the MFI and DMSO treated wells were used as control. Asterisks (*) indicate examples for which data represents an average of n≥3 repeat experiments.
Background: A flow cytometer gives signals particle by particle.
Target sequence in this assay (Q9UKS7 whole entry): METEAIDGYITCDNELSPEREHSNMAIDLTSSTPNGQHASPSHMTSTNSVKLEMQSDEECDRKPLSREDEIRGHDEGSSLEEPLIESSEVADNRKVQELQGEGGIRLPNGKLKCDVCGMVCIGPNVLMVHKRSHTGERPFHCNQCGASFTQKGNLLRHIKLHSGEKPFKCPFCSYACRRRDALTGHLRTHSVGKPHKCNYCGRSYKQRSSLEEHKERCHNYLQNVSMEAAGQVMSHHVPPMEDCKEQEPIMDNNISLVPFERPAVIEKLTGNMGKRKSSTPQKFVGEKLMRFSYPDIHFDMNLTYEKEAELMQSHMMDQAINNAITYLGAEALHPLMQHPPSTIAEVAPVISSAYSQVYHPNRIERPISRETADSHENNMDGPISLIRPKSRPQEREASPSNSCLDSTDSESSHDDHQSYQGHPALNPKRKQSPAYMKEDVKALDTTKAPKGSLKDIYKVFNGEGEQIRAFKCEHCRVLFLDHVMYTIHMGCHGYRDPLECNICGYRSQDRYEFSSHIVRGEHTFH
Target sequence in this assay (Q96SW2 whole entry): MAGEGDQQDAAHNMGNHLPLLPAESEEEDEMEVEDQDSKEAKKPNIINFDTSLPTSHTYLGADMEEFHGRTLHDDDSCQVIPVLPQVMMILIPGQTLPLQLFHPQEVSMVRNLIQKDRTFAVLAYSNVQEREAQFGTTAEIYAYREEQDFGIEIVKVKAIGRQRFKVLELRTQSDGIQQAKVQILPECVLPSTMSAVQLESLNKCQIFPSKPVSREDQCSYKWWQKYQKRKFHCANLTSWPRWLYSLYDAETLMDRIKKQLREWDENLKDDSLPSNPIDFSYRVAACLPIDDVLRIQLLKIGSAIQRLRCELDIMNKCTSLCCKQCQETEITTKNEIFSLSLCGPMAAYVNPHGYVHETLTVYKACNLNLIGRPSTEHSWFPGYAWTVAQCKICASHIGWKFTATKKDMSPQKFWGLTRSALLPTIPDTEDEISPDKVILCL
Target sequence in this assay (Q16531 whole entry partner): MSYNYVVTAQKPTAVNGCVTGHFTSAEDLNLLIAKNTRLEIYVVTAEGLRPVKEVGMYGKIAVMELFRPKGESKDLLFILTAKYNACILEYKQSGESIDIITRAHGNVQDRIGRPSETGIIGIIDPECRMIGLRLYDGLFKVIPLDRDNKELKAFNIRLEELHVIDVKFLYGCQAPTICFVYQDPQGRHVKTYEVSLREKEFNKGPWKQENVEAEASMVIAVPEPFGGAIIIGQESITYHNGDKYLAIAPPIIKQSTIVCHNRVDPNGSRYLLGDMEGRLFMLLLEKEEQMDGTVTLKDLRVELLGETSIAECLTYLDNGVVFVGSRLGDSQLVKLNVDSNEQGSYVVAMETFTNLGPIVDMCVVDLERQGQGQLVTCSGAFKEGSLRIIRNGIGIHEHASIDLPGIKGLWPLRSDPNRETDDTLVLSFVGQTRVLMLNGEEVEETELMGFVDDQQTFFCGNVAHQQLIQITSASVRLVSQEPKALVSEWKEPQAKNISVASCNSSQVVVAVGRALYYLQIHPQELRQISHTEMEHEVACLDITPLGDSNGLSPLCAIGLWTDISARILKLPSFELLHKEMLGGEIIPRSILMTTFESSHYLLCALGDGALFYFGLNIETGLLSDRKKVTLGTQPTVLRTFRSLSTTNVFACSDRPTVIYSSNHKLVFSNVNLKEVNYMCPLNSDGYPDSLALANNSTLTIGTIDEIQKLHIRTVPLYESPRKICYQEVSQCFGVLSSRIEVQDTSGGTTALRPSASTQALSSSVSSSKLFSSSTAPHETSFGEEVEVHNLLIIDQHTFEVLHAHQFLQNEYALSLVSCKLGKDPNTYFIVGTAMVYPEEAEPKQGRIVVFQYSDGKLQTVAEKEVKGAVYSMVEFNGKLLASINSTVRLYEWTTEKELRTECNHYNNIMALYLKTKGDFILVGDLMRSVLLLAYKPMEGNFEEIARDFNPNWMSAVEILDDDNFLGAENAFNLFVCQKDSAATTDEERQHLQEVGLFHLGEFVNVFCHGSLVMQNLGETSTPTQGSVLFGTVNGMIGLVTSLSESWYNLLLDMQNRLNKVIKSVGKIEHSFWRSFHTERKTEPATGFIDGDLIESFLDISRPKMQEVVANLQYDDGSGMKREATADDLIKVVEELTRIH

Assay [3] deals with T2, IKZF2. The assay is described as follows: HEK293 HiBiT in vitro degradation of IKZF2. Further details: expressed in transfected cells. The settings on record: for Dmax: HEK293, HEK293 HiBiT, maximum degradation at the highest concentration tested; for DC50: HEK293 HiBiT, 18-24 hr incubation, normalized to DMSO control, read-out: IKZF2 EC50. In a few lines: as §1
Target sequence in this assay (Q9UKS7 1-500 isoform Q9UKS7-2): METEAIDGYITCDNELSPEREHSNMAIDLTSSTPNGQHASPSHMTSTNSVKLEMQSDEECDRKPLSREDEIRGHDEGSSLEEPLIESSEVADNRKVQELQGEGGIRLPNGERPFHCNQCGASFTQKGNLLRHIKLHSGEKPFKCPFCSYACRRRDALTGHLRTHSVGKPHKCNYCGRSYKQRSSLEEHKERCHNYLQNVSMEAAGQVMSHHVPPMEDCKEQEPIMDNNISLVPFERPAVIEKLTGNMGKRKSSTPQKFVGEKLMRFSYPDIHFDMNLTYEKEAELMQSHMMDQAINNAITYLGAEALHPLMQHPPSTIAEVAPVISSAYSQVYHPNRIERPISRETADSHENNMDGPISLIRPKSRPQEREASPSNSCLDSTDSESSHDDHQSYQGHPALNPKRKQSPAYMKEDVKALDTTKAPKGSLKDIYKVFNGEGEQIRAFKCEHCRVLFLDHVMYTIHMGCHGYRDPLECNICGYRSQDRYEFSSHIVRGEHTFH
Target sequence in this assay (Q96SW2 whole entry): as the sequence (Q96SW2 whole entry) above
Target sequence in this assay (Q16531 whole entry partner): as the sequence (Q16531 whole entry partner) above

T1 sequence (Q13422 whole entry): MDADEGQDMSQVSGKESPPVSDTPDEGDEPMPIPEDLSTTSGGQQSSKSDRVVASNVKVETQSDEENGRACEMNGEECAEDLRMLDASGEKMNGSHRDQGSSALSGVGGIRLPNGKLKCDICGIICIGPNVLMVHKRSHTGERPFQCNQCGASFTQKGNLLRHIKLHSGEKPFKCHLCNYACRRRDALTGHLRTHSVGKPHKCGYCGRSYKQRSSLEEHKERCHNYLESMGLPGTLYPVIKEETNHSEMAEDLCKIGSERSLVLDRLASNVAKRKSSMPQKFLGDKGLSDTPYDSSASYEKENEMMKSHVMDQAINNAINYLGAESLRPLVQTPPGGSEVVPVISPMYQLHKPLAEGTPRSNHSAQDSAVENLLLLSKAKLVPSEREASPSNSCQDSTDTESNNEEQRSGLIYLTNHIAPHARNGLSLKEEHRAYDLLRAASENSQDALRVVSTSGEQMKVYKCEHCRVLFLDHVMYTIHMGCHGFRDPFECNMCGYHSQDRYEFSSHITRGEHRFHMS
T1 sequence (Q96SW2 whole entry): as the sequence (Q96SW2 whole entry) above
T1 sequence (Q16531 whole entry partner): as the sequence (Q16531 whole entry partner) above

Consider `O=C1CCC(N2Cc3cc(C[C@H]4CCCC[C@@H]4NC4CCOCC4)ccc3C2=O)C(=O)N1` (stereo partly shown) [Example 74], for which the Dmax in assay [1] turned out to be 55%; in assay [2] it was 93%; in assay [3], 96%. Besides, the DC50 came to 226 nM in assay [1], 3 nM in assay [2] and 4 nM in assay [3].

Regarding `O=C1CCC(N2Cc3cc(C[C@H]4CCCC[C@@H]4NC4CC5(CC5)C4)ccc3C2=O)C(=O)N1` (stereo partly drawn) [Example 79, 3-(1-oxo-5-(((1R,2S)-2-(spiro[2.3]hexan-5-ylamino)cyclohexyl)methyl)isoindolin-2-yl)piperidine-2,6-dione], the maximal degradation (Dmax) in assay [1] came out at 33%; in assay [2], 93%; in assay [3] it was 94%. The DC50 in assay [1] was determined as 98 nM; in assay [2], 5 nM; in assay [3], 5 nM.

For `CC1(C)CC(N[C@H]2CCCC[C@@H]2Cc2ccc3c(c2)CN(C2CCC(=O)NC2=O)C3=O)C1` (stereo partly drawn) [Example 82, 3-(5-(((1R,2S)-2-((3,3-dimethylcyclobutyl)amino)cyclohexyl)methyl)-1-oxoisoindolin-2-yl)piperidine-2,6-dione], the Dmax in assay [1] amounted to 28%; in assay [2] it was 89%; in assay [3], 94%. Further, the DC50 in assay [1] was 327 nM; in assay [2], 4 nM; in assay [3], 7 nM.

On to `CC(C)N[C@H]1CCCC[C@@H]1Cc1ccc2c(c1F)CN(C1CCC(=O)NC1=O)C2=O` (stereo partly drawn) [Example 85, 3-(4-fluoro-5-(((1R,2S)-2-(isopropylamino)cyclohexyl)methyl)-1-oxoisoindolin-2-yl)piperidine-2,6-dione], for which the Dmax in assay [1] was 40%; in assay [2] it was 96%; in assay [3], 97%. The DC50 came out at 70 nM in assay [1], 2 nM in assay [2] and 2 nM in assay [3].

As to `CC(C)(C)CCN[C@H]1CCCC[C@@H]1Cc1ccc2c(c1F)CN(C1CCC(=O)NC1=O)C2=O` (stereo partly drawn) [Example 89, 3-(5-(((1R,2S)-2-((3,3-dimethylbutyl)amino)cyclohexyl)methyl)-4-fluoro-1-oxoisoindolin-2-yl)piperidine-2,6-dione], the maximal degradation (Dmax) in assay [1] stood at 28%; in assay [2], 97%; in assay [3], 97%. Besides, the figures for the DC50 in assay [1], in assay [2] and in assay [3] were 64 nM, 5 nM and 6 nM, respectively.

On to `O=C1CCC(N2Cc3cc(C[C@H]4OCCC[C@@H]4NC4CCCCC4)ccc3C2=O)C(=O)N1` (stereo partly drawn) [Example 95, 3-(5-(((2R,3S)-3-(cyclohexylamino)tetrahydro-2H-pyran-2-yl)methyl)-1-oxoisoindolin-2-yl)piperidine-2,6-dione], for which the results for the DC50 in assay [1], in assay [2] and in assay [3] were > 10000 nM, 11 nM and 16 nM, respectively. Besides, the Dmax came to 89% in assay [2] and 88% in assay [3].

For the compound `O=C1CCC(N2Cc3cc(C[C@H]4CCCC[C@@H]4NC4CC5(C4)CC(F)(F)C5)ccc3C2=O)C(=O)N1` (stereo partly shown) [Example 101], the greatest degradation seen (Dmax) in assay [1] is 32%; in assay [2], 95%; in assay [3], 98%. In addition, the results for the DC50 in assay [1], in assay [2] and in assay [3] were 39 nM, 6 nM and 5 nM, respectively.

Turning to `CC(N[C@H]1CCCC[C@@H]1Cc1ccc2c(c1)CN(C1CCC(=O)NC1=O)C2=O)C1CCC1` (stereo partly shown) [Example 103], the DC50 in assay [1] was > 1000 nM; in assay [2], 4 nM; in assay [3], 3 nM. Further, the Dmax turned out to be 96% in assay [2] and 95% in assay [3].

With `CC1(C)CC(N[C@H]2CCCC[C@@H]2Cc2ccc3c(c2)CN(C2CCC(=O)NC2=O)C3=O)CCO1` (stereo partly shown) [Example 109], the Dmax came to 34% in assay [1], 97% in assay [2] and 96% in assay [3]. In addition, the results for the DC50 in assay [1], in assay [2] and in assay [3] were 103 nM, 1 nM and 5 nM, respectively.

By Dmax is commonly meant the largest share of the target that was removed.
